Experimental data from the supplement of paper PMC8882468.
± gives the standard deviation of the averaged measurements.

Columns and labels:
HCI-003.E2 = organoid from an ER-positive breast cancer xenograft; experiment: CTG-3D luminescence at 96 h relative to day-0 seeding control (ratio to day 0); higher = more growth / less cytotoxicity; PDxO 3D drug screen, 96 h, CTG-3D normalised to day-0 seeding control.
HCI-005.E2 = organoid from a breast cancer xenograft with a HER2-positive history; experiment: as above
HCI-011.E2 = organoid from an ER-positive breast cancer xenograft; experiment: as above
HCI-016 = organoid from a triple-negative breast cancer xenograft; experiment: as above
HCI-019 = organoid from a triple-negative breast cancer xenograft; experiment: as above
HCI-025 = organoid from a breast cancer xenograft; experiment: as above
HCI-015 = organoid from a triple-negative breast cancer xenograft; experiment: CTG-3D luminescence at 96 h relative to day-0 seeding control (ratio to day 0); higher = more growth / less cytotoxicity; PDxO 3D drug screen (set 2), 96 h, CTG-3D normalised to day-0 seeding control.

CC(=O)O[C@H]1C(=O)[C@@]2(C)[C@H]([C@H](OC(=O)c3ccccc3)[C@]3(O)C[C@H](OC(=O)[C@H](O)[C@@H](NC(=O)c4ccccc4)c4ccccc4)C(C)=C1C3(C)C)[C@]1(OC(C)=O)CO[C@@H]1C[C@@H]2O [paclitaxel]
CTG-3D luminescence at 96 h
Conditions | 12.5 pM | 0.00025 µM | 0.005 µM | 0.1 µM | 1 µM | 10 µM | 100 µM | 625 fM
HCI-003.E2 | 0.723 ± 0.26 | 0.764 ± 0.34 | 0.601 ± 0.18 | 0.625 ± 0.068 | 0.634 ± 0.16 | 0.787 ± 0.4 | 0.992 ± 0.28 | 0.813 ± 0.22
HCI-005.E2 | 1.56 ± 0.41 | 1.54 ± 0.19 | 1.53 ± 0.45 | 1.34 ± 0.34 | 1.49 ± 0.35 | 1.85 ± 0.66 | 1.39 ± 0.33 | 1.97 ± 0.47
HCI-011.E2 | 1.3 ± 0.39 | 1.33 ± 0.37 | 1.09 ± 0.25 | 1.41 ± 0.65 | 1.34 ± 0.6 | 1.77 ± 0.55 | 1.8 ± 0.59 | 1.52 ± 0.6

CTG-3D luminescence at 96 h
Conditions | 12.5 pM | 0.00025 µM | 0.005 µM | 0.1 µM | 1 µM | 10 µM | 100 µM | 625 fM
HCI-011.E2, days in culture: 74 | 2.01 | 2.21 | 1.82 | 1.95 | 1.91 | 2.73 | 1.85 | 2.25
HCI-016, days in culture: 153 | 1.14 | 0.515 | 0.631 | 0.561 | 0.976 | 1.08 | 0.796 | 0.781
HCI-016, days in culture: 172 | 2.25 | 1.87 | 1.29 | 0.627 | 0.505 | 0.659 | 0.505 | 1.5
HCI-016, days in culture: 190 | 1.89 | 1.42 | 0.919 | 0.359 | 0.861 | 0.704 | 0.661 | 1.05
HCI-016, days in culture: 199 | 1.64 | 1.67 | 0.633 | 0.431 | 0.495 | 0.834 | 0.484 | 1.66
HCI-019, days in culture: 110 | 1.88 | 1.91 | 0.816 | 0.627 | 0.47 | 0.827 | 0.987 | 2.39
HCI-019, days in culture: 131 | 2.01 | 2.78 | 0.75 | 0.609 | 0.644 | 1.48 | 1.29 | 3.26
HCI-019, days in culture: 152 | 1.25 | 1.28 | 0.778 | 0.964 | 0.598 | 1.01 | 1.18 | 1.52
HCI-025, days in culture: 172 | 1.17 | 0.343 | 0.553 | 0.314 | 0.362 | 0.295 | 0.584 | 0.698
HCI-025, days in culture: 209 | 2.09 | 2.2 | 1.75 | 0.281 | 0.353 | 0.301 | 0.767 | 2
HCI-025, days in culture: 218 | 1.85 | 2.18 | 1.43 | 0.199 | 0.168 | 0.213 | 0.507 | 1.92

C/C=C1\NC(=O)[C@H]2CSSCC/C=C/[C@H](CC(=O)N[C@H](C(C)C)C(=O)N2)OC(=O)[C@H](C(C)C)NC1=O [romidepsin]
CTG-3D luminescence at 96 h
Conditions | 12.5 pM | 0.00025 µM | 0.005 µM | 0.1 µM | 1 µM | 10 µM | 100 µM | 625 fM
HCI-003.E2 | 1.2 ± 0.82 | 0.624 ± 0.17 | 0.21 ± 0.044 | 0.0473 ± 0.022 | 0.0243 ± 0.015 | 0.0035 ± 0.0027 | -0.00659 ± 0.0022 | 0.719 ± 0.31
HCI-005.E2 | 1.07 ± 0.39 | 0.734 ± 0.25 | 0.155 ± 0.052 | 0.0737 ± 0.016 | 0.0546 ± 0.0034 | 0.00415 ± 0.003 | -0.00471 ± 0.0012 | 0.827 ± 0.73
HCI-011.E2 | 1.55 ± 0.36 | 1.34 ± 0.47 | 0.559 ± 0.16 | 0.47 ± 0.17 | 0.382 ± 0.17 | 0.0141 ± 0.0054 | -0.00792 ± 0.005 | 0.902 ± 0.2

CTG-3D luminescence at 96 h
Conditions | 12.5 pM | 0.00025 µM | 0.005 µM | 0.1 µM | 1 µM | 10 µM | 100 µM | 625 fM
HCI-011.E2, days in culture: 74 | 2.09 | 2.7 | 1.63 | 0.493 | 0.486 | 0.0744 | -0.0129 | 1.63
HCI-016, days in culture: 153 | 2.79 | 0.384 | 0.563 | 0.106 | 0.214 | -0.00553 | -0.0108 | 2.21
HCI-016, days in culture: 172 | 2.29 | 1.31 | 0.385 | 0.107 | 0.127 | 0.00531 | -0.0131 | 1.69
HCI-016, days in culture: 190 | 1.76 | 1.62 | 0.684 | 0.0156 | 0.0109 | -0.0529 | -0.107 | 1.55
HCI-016, days in culture: 199 | 2 | 2.14 | 0.631 | 0.071 | 0.0656 | -0.00558 | -0.0191 | 2.15
HCI-019, days in culture: 110 | 1.6 | 1.12 | 0.598 | 0.376 | 0.0772 | 0.000883 | -0.00824 | 2.26
HCI-019, days in culture: 131 | 2.29 | 2.76 | 1.06 | 0.975 | 0.441 | 0.00479 | -0.00826 | 3.05
HCI-019, days in culture: 152 | 1.95 | 1.43 | 1.55 | 0.685 | 0.489 | 0.00416 | -0.00783 | 1.53
HCI-025, days in culture: 172 | 1.84 | 1.14 | 1.58 | -0.245 | -0.354 | -0.306 | -0.318 | 1.48
HCI-025, days in culture: 209 | 1.99 | 2.87 | 1.48 | 0.312 | 0.313 | 0.034 | -0.0293 | 1.94
HCI-025, days in culture: 218 | 1.5 | 2.01 | 0.886 | -0.155 | -0.189 | -0.329 | -0.306 | 1.84

CC(C)n1nc(-c2ccc3oc(N)nc3c2)c2c(N)ncnc21 [sapanisertib]
CTG-3D luminescence at 96 h
Conditions | 12.5 pM | 0.00025 µM | 0.005 µM | 0.1 µM | 1 µM | 10 µM | 100 µM | 625 fM
HCI-003.E2 | 2.24 ± 0.71 | 2.55 ± 0.68 | 1.59 ± 0.54 | 0.0566 ± 0.025 | 0.0162 ± 0.011 | 0.0035 ± 0.0049 | -0.00157 ± 0.0026 | 2.03 ± 0.3
HCI-005.E2 | 2.06 ± 0.39 | 2.01 ± 0.56 | 1.9 ± 0.47 | 0.62 ± 0.35 | 0.362 ± 0.2 | 0.282 ± 0.079 | 0.0263 ± 0.0063 | 1.56 ± 0.13
HCI-011.E2 | 1.81 ± 0.23 | 1.79 ± 0.046 | 1.06 ± 0.06 | 0.362 ± 0.027 | 0.179 ± 0.0025 | 0.212 ± 0.067 | 0.311 ± 0.016 | 1.74 ± 0.5

CTG-3D luminescence at 96 h
Conditions | 12.5 pM | 0.00025 µM | 0.005 µM | 0.1 µM | 1 µM | 10 µM | 100 µM | 625 fM
HCI-011.E2, days in culture: 74 | 2.89 | 2.86 | 1.28 | 0.283 | 0.158 | 0.168 | 0.26 | 2.98
HCI-015, days in culture: 333 | 1.82 | 1.45 | 1.21 | 0.567 | 0.461 | 0.114 | 0.0973 | 1.56
HCI-015, days in culture: 355 | 2.17 | 1.74 | 1.65 | 1.3 | 0.564 | 0.557 | 0.233 | 1.38
HCI-015, days in culture: 369 | 2.06 | 1.61 | 2.17 | 0.797 | 0.611 | 0.449 | 0.336 | 1.68
HCI-016, days in culture: 153 | 2.9 | 1.03 | 2.18 | 0.842 | 0.922 | 0.411 | 0.0999 | 3.03
HCI-016, days in culture: 172 | 1.87 | 2.06 | 1.85 | 0.699 | 0.584 | 0.407 | 0.191 | 1.68
HCI-016, days in culture: 190 | 1.66 | 1.47 | 1.49 | 0.534 | 0.464 | 0.421 | 0.149 | 1.23
HCI-016, days in culture: 199 | 1.5 | 1.27 | 1.33 | 0.585 | 0.511 | 0.374 | 0.119 | 1.63
HCI-019, days in culture: 110 | 1.88 | 1.46 | 1.02 | 0.781 | 0.409 | 0.493 | 0.0143 | 2.26
HCI-019, days in culture: 131 | 2.52 | 3.19 | 3.17 | 1.21 | 0.676 | 0.681 | 0.0207 | 3.58
HCI-019, days in culture: 152 | 4.18 | 3.66 | 2.71 | 0.969 | 0.811 | 0.616 | 0.0357 | 2.12
HCI-025, days in culture: 172 | 2.78 | 1.04 | 1.61 | 0.407 | 0.372 | 0.145 | 0.00492 | 2.01
HCI-025, days in culture: 209 | 1.39 | 2.18 | 1.62 | 0.44 | 0.256 | 0.217 | 0.0409 | 1.33
HCI-025, days in culture: 218 | 1.85 | 2.15 | 1.44 | 0.421 | 0.231 | 0.291 | 0.0278 | 1.99
